Test results taken from patent publication US20090220648A1, “Nutritional additive for animals” (KEMIRA GROW HOW AB, priority 2005, published 2009).

Test: Buffering capacity
Format: physicochemical

Row | Compound | buffering capacity, mekvH+/kg sample [mekvH+/kg sample]
1 | O=C([O-])[O-].[Ca+2] [CaCO3] | 14850
2 | O=S(=O)([O-])[O-].[Ca+2] [CaSO4] | 50
